Results taken from patent US10703756B2, “Pyrrolo[2,3-D]pyrimidinyl, pyrrolo[2,3-B]pyrazinyl, pyrrolo[2,3-B]pyridinyl acrylamides and epoxides thereof” (Pfizer Inc., priority 2015, dated 2020).

Assays:
JAK3 enzyme = molecular target: T1, JAK3 enzyme (Homo sapiens, UniProt P52333); assay: JAK Caliper Enzyme Assay at 4 μM ATP; assay type: biochemical
T1 sequence (P52333 1-1124): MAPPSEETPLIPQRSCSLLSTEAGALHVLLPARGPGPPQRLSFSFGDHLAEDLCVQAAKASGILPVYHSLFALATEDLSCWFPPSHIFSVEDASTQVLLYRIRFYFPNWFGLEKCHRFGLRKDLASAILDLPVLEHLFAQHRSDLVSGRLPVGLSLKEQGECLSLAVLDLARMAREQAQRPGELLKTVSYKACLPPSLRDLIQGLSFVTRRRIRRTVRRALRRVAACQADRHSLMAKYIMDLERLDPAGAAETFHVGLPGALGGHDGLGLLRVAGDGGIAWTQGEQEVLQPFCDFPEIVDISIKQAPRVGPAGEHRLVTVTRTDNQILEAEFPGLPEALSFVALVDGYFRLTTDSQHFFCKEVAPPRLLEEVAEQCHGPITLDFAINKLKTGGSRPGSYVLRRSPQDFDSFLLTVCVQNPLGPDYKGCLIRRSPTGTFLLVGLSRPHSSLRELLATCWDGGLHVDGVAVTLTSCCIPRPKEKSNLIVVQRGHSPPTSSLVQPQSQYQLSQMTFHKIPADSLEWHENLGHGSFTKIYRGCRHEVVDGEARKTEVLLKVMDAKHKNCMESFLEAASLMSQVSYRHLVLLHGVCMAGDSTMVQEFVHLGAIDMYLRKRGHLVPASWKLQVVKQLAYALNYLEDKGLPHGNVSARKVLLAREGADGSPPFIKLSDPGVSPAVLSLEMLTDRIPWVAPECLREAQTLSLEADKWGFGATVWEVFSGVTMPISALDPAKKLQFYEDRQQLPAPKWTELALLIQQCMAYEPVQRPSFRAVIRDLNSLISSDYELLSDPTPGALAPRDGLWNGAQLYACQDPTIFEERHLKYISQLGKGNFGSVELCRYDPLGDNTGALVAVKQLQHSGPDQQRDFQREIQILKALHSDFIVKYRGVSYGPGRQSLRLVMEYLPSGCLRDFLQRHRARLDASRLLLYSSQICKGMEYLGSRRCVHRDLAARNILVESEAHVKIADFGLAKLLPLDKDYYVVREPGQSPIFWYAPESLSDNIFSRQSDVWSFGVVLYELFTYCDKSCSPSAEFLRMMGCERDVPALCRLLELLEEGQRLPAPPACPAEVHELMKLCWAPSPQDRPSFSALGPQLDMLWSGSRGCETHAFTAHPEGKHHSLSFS
Method in brief: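 11-pt ½-log cpd titration in DMSO (top 600 μM, pre-assay); enzyme conc/incubation adjusted per prep → 20-30% peptide phosphorylation; phospho vs non-phospho peptide read by chip-based electrophoretic separation.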

[1] = Stability of JAK3 Covalent Inhibitors in Human Whole Blood; assay type: in vitro ADME; conditions: both sexes, 1 μM test compound, 37° C., 180 min incubation, read-out: Human blood stability t1/2
Method in brief: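 Compound at 1 μM final incubated in duplicate at 37° C for 180 min in fresh K2-EDTA whole blood […]. Samples quenched in acetonitrile with internal standard; LC-MS/MS peak area ratios gave % parent remaining over time.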

[2] = test system: IL-15 induced STAT5 phosphorylation in human whole blood lymphocytes; assay: HWB IL-15 Induced STAT5 Phosphorylation Assay; assay type: cell-based; conditions: Lymphocyte, IL-15 final 50 ng/ml, read-out: HWB_IL15 pSTAT5 IC50
Method in brief: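 Heparinised human whole blood preincubated with compound (0.2% DMSO final) 45 min at 37° C, then stimulated with human IL-15 (50 ng/ml final) for 15 min. After lyse/fix and Perm Buffer III permeabilisation, stained overnight at 4° C with AlexaFluor647 anti-phospho-STAT5; read by flow cytometry gated on total lymphocytes.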

| Structure (SMILES) | IC50 (JAK3 enzyme) [nM] | half-life at 1 μM [1] [h] | IC50 [2] [nM] |
| --- | --- | --- | --- |
| C=CC(=O)N1CC[C@@H](Oc2cnc3[nH]cc(C(=O)NCC)c3n2)C[C@@H]1C (single isomer, unassigned) [Example 79] | 0.608 | 5.5 | 2710 |
| C=CC(=O)N1CCC(Oc2cnc3[nH]cc(C(=O)N[C@@H]4CCC[C@H]4F)c3n2)CC1 [Example 229, 2-[(1-acryloylpiperidin-4-yl)oxy]-N-[(1R,2R)-2-fluorocyclopentyl]-5H-pyrrolo[2,3-b]pyrazine-7-carboxamide] | 0.582 | 5.93 | 2390 |
| C=CC(=O)N1CCN(c2cnc3[nH]cc(C(=O)N[C@H]4CCO[C@H]4C)c3n2)CC1(C)C [Example 166, 3-({[2-(4-acryloyl-3,3-dimethylpiperazin-1-yl)-5H-pyrrolo[2,3-b]pyrazin-7-yl]carbonyl}amino)-2,5-anhydro-1,3,4-trideoxy-L-threo-pentitol] | 0.667 | > 6 | 1210 |
| C=CC(=O)N1CCC(Oc2cnc3[nH]cc(C(=O)N[C@@H]4CCC[C@@H]4F)c3n2)CC1 [Example 230, 2-[(1-acryloylpiperidin-4-yl)oxy]-N-[(1R,2S)-2-fluorocyclopentyl]-5H-pyrrolo[2,3-b]pyrazine-7-carboxamide] | 0.305 | 5.85 | 1710 |
| C=CC(=O)N1CCN(c2cnc3[nH]cc(C(=O)NCC(C)C)c3n2)C[C@@H]1CC(C)C [Example 288, 2-[(3S)-4-acryloyl-3-(2-methylpropyl)piperazin-1-yl]-N-(2-methylpropyl)-5H-pyrrolo[2,3-b]pyrazine-7-carboxamide] | 0.376 | > 6 | 2160 |
| C=CC(=O)N1CCC(Nc2cnc3[nH]cc(C(=O)NCc4ccc(F)cc4)c3n2)CC1 [Example 188, 2-[(1-acryloylpiperidin-4-yl)amino]-N-(4-fluorobenzyl)-5H-pyrrolo[2,3-b]pyrazine-7-carboxamide] | 0.515 | > 6 | 913 |
| C=CC(=O)N1CCC(Oc2cnc3[nH]cc(C(=O)NC4CCCC4(F)F)c3n2)CC1 (stereo not drawn) [Example 219, 2-[(1-acryloylpiperidin-4-yl)oxy]-N-(2,2-difluorocyclopentyl)-5H-pyrrolo[2,3-b)pyrazine-7-carboxamide] | 0.363 | 4.05 | 889 |
| C=CC(=O)N1C[C@H](CN2CC[C@H](C#N)C2)C[C@H](Nc2ncnc3[nH]ccc23)C1 [Example 108, (S)-1-(((3S,5S)-5-((7H-pyrrolo[2,3-d]pyrimidin-4-yl)amino)-1-acryloylpiperidin-3-yl)methyl)pyrrolidine-3-carbonitrile] | 0.769 | 2.23 | 3480 |
| C=CC(=O)N1CCN(c2cnc3[nH]cc(C(=O)N[C@@H](C)COC)c3n2)CC1(C)C [Example 298, 2-(4-acryloyl-3,3-dimethylpiperazin-1-yl)-N-[(2S)-1-methoxypropan-2-yl]-5H-pyrrolo[2,3-b]pyrazine-7-carboxamide] | 0.485 | > 6 | 1280 |
| C=CC(=O)N1CC[C@@H](Oc2cnc3[nH]cc(C(=O)N[C@@H](C)COC)c3n2)C[C@@H]1C (racemic) [Example 71, Trans-racemic-2-{[1-acryloyl-2-methylpiperidin-4-yl]oxy}-N-[(2S)-1-methoxypropan-2-yl]-5H-pyrrolo[2,3-b]pyrazine-7-carboxamide] | 1.13 | 5.15 | 931 |
| C=CC(=O)N(C)C1CN(c2cnc3[nH]cc(C(=O)N[C@H](C)COC)c3n2)C1 [Example 86, 2-{3-[acryloyl(methyl)amino]azetidin-1-yl}-N-[(2R)-1-methoxypropan-2-yl]-5H-pyrrolo[2,3-b]pyrazine-7-carboxamide] | 0.515 | 1.67 | 2920 |
| C=CC(=O)N1CC(CF)CC(Nc2ncnc3[nH]ccc23)C1 (mixture of isomers) [Example 102, Cis-racemic-1-[3-(fluoromethyl-5-(7H-pyrrolo[2,3-d]pyrimidin-4-ylamino)piperidin-1-yl]prop-2-en-1-one] | 1.9 | 2.02 | 1530 |

The next lines start with the values.

| IC50 (JAK3 enzyme) [nM] | half-life at 1 μM [1] [h] | IC50 [2] [nM] | Structure (SMILES) |
| --- | --- | --- | --- |
| 0.179 | 2.22 | 199 | C=CC(=O)N1CCN(c2cnc3[nH]cc(C(=O)N[C@@H](C)COC)c3n2)CC1 [Example 295, 2-(4-acryloylpiperazin-1-yl)-N-[(2S)-1-methoxypropan-2-yl]-5H-pyrrolo[2,3-b]pyrazine-7-carboxamide] |
| 0.404 | 5.57 | 396 | C=CC(=O)N1CC[C@H](Nc2cnc3[nH]cc(C(=O)NCCCC(F)(F)F)c3n2)[C@H](OC)C1 [Example 319, 2-{[(3R,4S)-1-acryloyl-3-methoxypiperidin-4-yl]amino}-N-(4,4,4-trifluorobutyl)-5H-pyrrolo[2,3-b]pyrazine-7-carboxamide] |
| 0.68 | 3.4 | 818 | C=CC(=O)N1CC[C@H](Nc2cnc3[nH]cc(C(=O)NCC(F)(F)F)c3n2)[C@H](OC)C1 [Example 293, 2-{[(3R,4S)-1-acryloyl-3-methoxypiperidin-4-yl]amino}-N-(2,2,2-trifluoroethyl)-5H-pyrrolo[2,3-b]pyrazine-7-carboxamide] |
| 0.384 | 4.05 | 842 | C=CC(=O)N1CC[C@H](Nc2cnc3[nH]cc(C(=O)NCC)c3n2)C[C@H]1C (racemic) [Example 40, Trans-racemic-2-{[(2R,4S)-1-acryloyl-2-methylpiperidin-4-yl]amino}-N-ethyl-5H-pyrrolo[2,3-b]pyrazine-7-carboxamide] |
| 0.442 | 5.57 | 360 | C=CC(=O)N1CCC(Nc2cnc3[nH]cc(C(=O)NCCC4CC4)c3n2)CC1 [Example 178, 2-[(1-acryloylpiperidin-4-yl)amino]-N-(2-cyclopropylethyl)-5H-pyrrolo[2,3-b]pyrazine-7-carboxamide] |
| 0.578 | 4.2 | 287 | C=CC(=O)N1CC[C@H](Nc2cnc3[nH]cc(C(=O)NCC(C)CC(F)(F)F)c3n2)[C@H](OC)C1 (mixture of isomers) [Example 328, Racemic-2-{[(3R,4S)-1-acryloyl-3-methoxypiperidin-4-yl]amino}-N-(4,4,4-trifluoro-2-methylbutyl)-5H-pyrrolo[2,3-b]pyrazine-7-carboxamide] |
| 0.35 | 4.27 | 1230 | C=CC(=O)N1CC[C@@H](Nc2cnc3[nH]cc(C(=O)NCC)c3n2)[C@H](C)C1 (single isomer, unassigned) [Example 44] |
| 0.4 | 4.68 | 1060 | C=CC(=O)N1CC[C@@H](Nc2cnc3[nH]cc(C(=O)NCC)c3n2)C[C@@H]1C (single isomer, unassigned) [Example 42] |
| 0.229 | 4.23 | 378 | C=CC(=O)N1CCC(Oc2cnc3[nH]cc(C(=O)N[C@@H](C)COC)c3n2)CC1 [Example 228, 2-[(1-acryloylpiperidin-4-yl)oxy]-N-[(2S)-1-methoxypropan-2-yl]-5H-pyrrolo[2,3-b]pyrazine-7-carboxamide] |
| 0.455 | > 6 | 780 | C=CC(=O)N1CC[C@H](Nc2cnc3[nH]cc(C(=O)NCC)c3n2)[C@H](OC)C1 [Example 326, 2-{[(3R,4S)-1-acryloyl-3-methoxypiperidin-4-yl]amino}-N-ethyl-5H-pyrrolo[2,3-b]pyrazine-7-carboxamide] |
| 0.262 | 2.42 | 221 | C=CC(=O)N1CCN(c2cnc3[nH]cc(C(=O)N[C@H](C)COC)c3n2)CC1 [Example 332] |
